Laboratory results published in patent US9999622B2, “Pyrazolothiazole compound and medicine comprising same” (NIPPON SHINYAKU CO., LTD., priority 2014, dated 2018).
Structures can show the parent of a compound that is named as a salt.

What was measured:
Format in all cases: biochemical
[1] = target: T1, JAK2 (Homo sapiens, UniProt O60674); test: JAK tyrosine kinase inhibitory activity in the presence of 1 mM ATP (ELISA), JAK2
T1 construct: purchased Carna Biosciences, Inc
Method: (§1) 1. Preparation of Test Compound
(§2) The test compound was dissolved in dimethyl sulfoxide (DMSO) to 10 mM and further diluted with DMSO to the concentrations of 1000, 100, 10, 1, 0.1 and 0.01 μM, respectively. For JAK1, these solutions of the test compound at the six concentrations 10 mM, 1000 μM, 100 μM, 10 μM, 1 μM and 0.1 μM were used. For JAK2 and JAK3, these solutions of the test compound at the six concentrations 1000 μM, 100 μM, 10 μM, 1 μM, 0.1 μM and 0.01 μM were used. The test compound solutions were diluted further to 20-fold with an assay buffer to obtain a sample solution. 15 mM Tris-HCl (pH7.5), 0.01 (v/v) % Tween-20 and 1 mM dithiothreitol were used as an assay buffer. DMSO was diluted to 20-fold with the assay buffer and was used as a negative control.
(§3) 2. JAK Tyrosine Kinase Inhibitory Activity in the Presence of 1 mM Atp
(§4) The activity was determined by ELISA method. Each of the sample solutions was added to a streptavidine coated 96-well plate (DELFIA Strip Plate 8×12 well, PerkinElmer) at 10 μL/well (n=2). […] Finally, JAK tyrosine kinase (Carna Biosciences, Inc.), which was previously diluted with the assay buffer to 7.5 nM for JAK1 and 0.75 nM for JAK2 and JAK3, was added to the plate at 20 μL/well, and the plate was incubated at 30° C. for 1 h. The plate was washed four times with buffer (50 mM Tris-HCl (pH 7.5), 150 mM NaCl, 0.02 (v/v) % Tween-20). A blocking buffer (0.1% Bovine Serum Albumin, 50 mM Tris-HCl (pH 7.5), 150 mM NaCl, 0.02 (v/v) % Tween-20) was added to the plate at 150 μL/well and the plate was blocked at 30° C. for 1 h. The blocking buffer was removed, and a horse radish peroxidase-labeled anti-phosphorylated tyrosine antibody (BD Biosciences, Inc.) (diluted to 10000-fold with the blocking buffer) was added to the plate at 100 μL/well, and the plate was incubated at 30° C. for 30 min. The plate was washed with the washing buffer four times, and 3,3′,5,5′-tetramethylbenizidine solution (Nacalai Tesque) was added to the plate at 100 μL/well to develop the color for 10 minutes. To the plate was added 0.1 M sulfuric acid at 100 μL/well to stop the reaction. The absorbance at 450 nm was measured using a microplate reader (BIO-RAD).
(§5) 3. Analysis of the Results

[2] = target: T2, JAK1 (Homo sapiens, UniProt P23458); test: JAK tyrosine kinase inhibitory activity in the presence of 1 mM ATP (ELISA), JAK1
T2 construct: purchased Carna Biosciences, Inc
Method: as §1, §2, §3, §4, §5

[3] = target: T3, JAK3 (Homo sapiens, UniProt P52333); test: JAK tyrosine kinase inhibitory activity in the presence of 1 mM ATP (ELISA), JAK3
T3 construct: purchased Carna Biosciences, Inc
T3 sequence (P52333 1-1124): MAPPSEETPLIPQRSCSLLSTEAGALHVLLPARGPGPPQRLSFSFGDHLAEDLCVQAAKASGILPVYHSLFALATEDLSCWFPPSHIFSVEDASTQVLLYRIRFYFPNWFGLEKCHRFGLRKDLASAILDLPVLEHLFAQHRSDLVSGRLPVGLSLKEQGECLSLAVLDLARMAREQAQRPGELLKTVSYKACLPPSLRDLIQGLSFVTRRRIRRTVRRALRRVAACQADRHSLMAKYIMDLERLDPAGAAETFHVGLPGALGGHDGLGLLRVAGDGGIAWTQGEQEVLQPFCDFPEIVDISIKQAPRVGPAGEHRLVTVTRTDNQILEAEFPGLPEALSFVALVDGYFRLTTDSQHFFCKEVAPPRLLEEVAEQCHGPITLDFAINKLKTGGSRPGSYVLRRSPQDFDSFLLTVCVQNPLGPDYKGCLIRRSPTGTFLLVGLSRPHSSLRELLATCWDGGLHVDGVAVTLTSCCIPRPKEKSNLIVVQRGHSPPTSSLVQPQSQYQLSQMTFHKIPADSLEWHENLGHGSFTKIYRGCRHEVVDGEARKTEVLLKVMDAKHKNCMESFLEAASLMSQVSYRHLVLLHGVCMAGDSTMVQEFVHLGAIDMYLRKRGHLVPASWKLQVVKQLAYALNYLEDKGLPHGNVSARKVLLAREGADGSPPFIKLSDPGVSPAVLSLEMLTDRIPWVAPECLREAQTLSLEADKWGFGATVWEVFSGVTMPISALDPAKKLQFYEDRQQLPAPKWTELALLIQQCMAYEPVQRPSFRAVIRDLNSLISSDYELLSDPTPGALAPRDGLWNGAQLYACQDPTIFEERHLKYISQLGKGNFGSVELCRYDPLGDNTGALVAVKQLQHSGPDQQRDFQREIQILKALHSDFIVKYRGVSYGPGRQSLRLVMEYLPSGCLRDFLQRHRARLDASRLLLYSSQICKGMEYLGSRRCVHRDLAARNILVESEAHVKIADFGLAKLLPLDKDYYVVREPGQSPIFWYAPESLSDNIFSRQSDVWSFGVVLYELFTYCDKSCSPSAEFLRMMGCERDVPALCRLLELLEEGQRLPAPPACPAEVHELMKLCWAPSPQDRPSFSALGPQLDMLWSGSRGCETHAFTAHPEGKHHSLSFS
Method: as §1, §2, §3, §4, §5

T1 sequence (O60674 whole entry): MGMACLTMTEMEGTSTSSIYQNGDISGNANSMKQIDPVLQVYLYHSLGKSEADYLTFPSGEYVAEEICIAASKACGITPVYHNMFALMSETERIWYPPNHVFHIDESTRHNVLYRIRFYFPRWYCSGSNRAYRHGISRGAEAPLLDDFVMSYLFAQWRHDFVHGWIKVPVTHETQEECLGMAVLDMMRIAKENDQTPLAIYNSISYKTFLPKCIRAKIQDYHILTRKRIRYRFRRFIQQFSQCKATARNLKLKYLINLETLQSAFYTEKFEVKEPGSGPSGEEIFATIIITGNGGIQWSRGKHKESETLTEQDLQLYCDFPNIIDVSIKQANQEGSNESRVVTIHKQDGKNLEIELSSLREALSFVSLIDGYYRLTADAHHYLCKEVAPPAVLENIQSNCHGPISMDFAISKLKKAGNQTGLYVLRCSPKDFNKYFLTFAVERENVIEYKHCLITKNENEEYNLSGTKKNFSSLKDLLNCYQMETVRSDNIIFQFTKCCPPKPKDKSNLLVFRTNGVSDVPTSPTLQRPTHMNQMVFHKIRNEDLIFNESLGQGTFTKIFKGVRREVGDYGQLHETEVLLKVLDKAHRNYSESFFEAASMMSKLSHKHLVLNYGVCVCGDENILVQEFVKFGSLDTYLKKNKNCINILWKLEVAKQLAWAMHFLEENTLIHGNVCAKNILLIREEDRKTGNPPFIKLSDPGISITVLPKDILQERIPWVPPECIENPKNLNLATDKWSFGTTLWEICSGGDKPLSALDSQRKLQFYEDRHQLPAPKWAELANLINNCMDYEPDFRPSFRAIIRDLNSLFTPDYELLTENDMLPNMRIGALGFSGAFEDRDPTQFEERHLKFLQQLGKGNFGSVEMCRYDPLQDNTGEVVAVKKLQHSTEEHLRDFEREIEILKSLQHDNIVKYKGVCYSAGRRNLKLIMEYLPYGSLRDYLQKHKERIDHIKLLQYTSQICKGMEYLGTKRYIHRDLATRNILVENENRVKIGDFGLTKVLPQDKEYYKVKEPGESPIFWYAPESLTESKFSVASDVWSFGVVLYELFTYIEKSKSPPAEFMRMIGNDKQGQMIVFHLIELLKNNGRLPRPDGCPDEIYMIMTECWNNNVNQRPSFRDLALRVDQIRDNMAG
T2 sequence (P23458 whole entry): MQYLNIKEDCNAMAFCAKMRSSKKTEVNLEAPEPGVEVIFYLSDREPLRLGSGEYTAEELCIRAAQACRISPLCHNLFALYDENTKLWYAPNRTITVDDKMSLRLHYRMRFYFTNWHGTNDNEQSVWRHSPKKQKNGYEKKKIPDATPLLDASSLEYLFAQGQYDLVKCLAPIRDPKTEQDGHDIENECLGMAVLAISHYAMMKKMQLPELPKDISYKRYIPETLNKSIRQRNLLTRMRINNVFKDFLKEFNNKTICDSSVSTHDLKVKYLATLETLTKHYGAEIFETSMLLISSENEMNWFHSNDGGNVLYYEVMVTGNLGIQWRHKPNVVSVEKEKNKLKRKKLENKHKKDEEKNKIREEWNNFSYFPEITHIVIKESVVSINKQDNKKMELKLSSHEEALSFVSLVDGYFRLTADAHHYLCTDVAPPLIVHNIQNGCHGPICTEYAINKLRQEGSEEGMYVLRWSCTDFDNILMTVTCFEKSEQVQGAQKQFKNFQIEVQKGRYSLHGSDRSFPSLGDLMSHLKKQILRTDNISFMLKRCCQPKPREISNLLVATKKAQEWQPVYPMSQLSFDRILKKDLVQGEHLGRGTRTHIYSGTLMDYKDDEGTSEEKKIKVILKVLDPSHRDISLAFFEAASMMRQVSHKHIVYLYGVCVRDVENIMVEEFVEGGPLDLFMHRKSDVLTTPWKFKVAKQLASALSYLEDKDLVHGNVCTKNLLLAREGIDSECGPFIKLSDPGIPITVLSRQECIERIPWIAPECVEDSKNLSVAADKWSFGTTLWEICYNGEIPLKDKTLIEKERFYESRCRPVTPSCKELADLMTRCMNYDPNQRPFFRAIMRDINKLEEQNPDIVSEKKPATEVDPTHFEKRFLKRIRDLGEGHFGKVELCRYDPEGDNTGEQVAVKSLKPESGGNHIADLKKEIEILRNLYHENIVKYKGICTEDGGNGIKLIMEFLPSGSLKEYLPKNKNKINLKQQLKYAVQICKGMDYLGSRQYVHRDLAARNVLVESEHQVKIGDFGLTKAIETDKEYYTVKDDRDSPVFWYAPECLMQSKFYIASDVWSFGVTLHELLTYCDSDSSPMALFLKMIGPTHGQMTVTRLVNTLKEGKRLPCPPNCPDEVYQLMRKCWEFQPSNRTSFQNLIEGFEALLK

IC50 [1] [nM]	IC50 [2] [nM]	IC50 [3] [nM]	SMILES
> 10000	860	> 10000	O=C(NC1CCN(C(=O)c2cc(NC3CCNCC3)nc(-c3cnn4ccsc34)n2)CC1)C1CC1 [Example 181, N-(1-6-[(piperidin-4-yl)amino]-2-(pyrazolo[5,1-b][1,3]thiazol-7-yl)pyrimidine-4-carbonylpiperidin-4-yl)cyclopropanecarboxamide dihydrochloride]
790	73	2100	CCS(=O)(=O)NC1CCN(C(=O)c2cc(N[C@@H](C)C3CC3)nc(-c3cnn4ccsc34)n2)CC1 [Example 68, N-(1-{[6-{[(1S)-1-Cyclopropylethyl]amino}-2-(pyrazolo[5,1-b][1,3]thiazol-7-yl)pyrimidin-4-yl]carbonyl}piperidin-4-yl)ethanesulfonamide]
> 10000	1500	> 10000	CCC(=O)N1CCC(Nc2cc(C(=O)N3CCC(NC(=O)OC)CC3)nc(-c3cnn4ccsc34)n2)CC1 [Example 198, Methyl (1-6-[(1-propanoylpiperidin-4-yl)amino]-2-(pyrazolo[5,1-b][1,3]thiazol-7-yl)pyrimidine-4-carbonylpiperidin-4-yl)carbamate]
790	19	2600	C[C@H](Nc1cc(C(=O)N2CCC(NC(=O)OCC(F)F)CC2)nc(-c2cnn3ccsc23)n1)C(C)(C)C [Example 99, 2,2-Difluoroethyl (1-{[6 {[(2S) 3,3-dimethylbutan-2-yl]amino}-2-(pyrazolo[5,1-b][1,3]thiazol-7-yl)pyrimidin-4-yl]carbonyl}piperidin-4-yl)carbamate]
2200	330	2300	CCCOC(=O)NC1CCN(C(=O)c2cc(N[C@H](C)C(C)(C)C)nc(-c3cnn4ccsc34)n2)CC1 [Example 85, Propyl (1-{[6-{[(2R)-3,3-dimethylbutan-2-yl]amino}-2-(pyrazolo[5,1-b][1,3]thiazol-7-yl)pyrimidin-4-yl]carbonyl}piperidin-4-yl)carbamate]
> 10000	70	> 10000	CCOC(=O)NC1CCN(C(=O)c2cc(N[C@@H]3CCN(C(=O)CC#N)C3)nc(-c3cnn4ccsc34)n2)CC1 [Example 203, Ethyl 1-[6-[(3R)-1-(cyanoacetyl)pyrrolidin-3-yl]amino-2-(pyrazolo[5,1-b][1,3]thiazol-7-yl)pyrimidine-4-carbonyl]piperidin-4-ylcarbamate]
> 10000	470	> 10000	CC(C)S(=O)(=O)N1CCC(Nc2cc(C(=O)N3CCC(NC(=O)C4CC4)CC3)nc(-c3cnn4ccsc34)n2)CC1 [Example 193, N-1-[6-[1-(propane-2-sulfonyl)piperidin-4-yl]amino-2-(pyrazolo[5,1-b][1,3]thiazol-7-yl)pyrimidine-4-carbonyl]piperidin-4-ylcyclopropanecarboxamide]
620	110	2400	C[C@H](Nc1cc(C(=O)N2CCC(NS(C)(=O)=O)CC2)nc(-c2cnn3ccsc23)n1)C1CC1 [Example 66, N-(1-{[6-{[(1S)-1-Cyclopropylethyl]amino}-2-(pyrazolo[5,1-b][1,3]thiazol-7-yl)pyrimidin-4-yl]carbonyl}piperidin-4-yl)methanesulfonamide]
1400	110	> 10000	C[C@H](Nc1cc(C(=O)N2CCC(NC(=O)c3ccccc3)CC2)nc(-c2cnn3ccsc23)n1)C1CC1 [Example 30, N-(1-{[6-{[(1S)-1-Cyclopropylethyl]amino}-2-(pyrazolo[5,1-b][1,3]thiazol-7-yl)pyrimidin-4-yl]carbonyl}piperidin-4-yl)benzamide]
6400	160	2100	C[C@@H](Nc1cc(C(=O)N2CCC(NC(=O)C3CC3)CC2)nc(-c2cnn3ccsc23)n1)C1CCCCC1 [Example 169, N-1-[6-[(1R)-1-cyclohexylethyl]amino-2-(pyrazolo[5,1-b][1,3]thiazol-7-yl)pyrimidine-4-carbonyl]piperidin-4-ylcyclopropanecarboxamide]
1600	170	7200	C[C@@H](Nc1cc(C(=O)N2CCC(NC(=O)C3CC3)CC2)nc(-c2cnn3ccsc23)n1)C1CC1 [Example 46, N-(1-{[6-{[(1R)-1-Cyclopropylethyl]amino}-2-(pyrazolo[5,1-b][1,3]thiazol-7-yl)pyrimidin-4-yl]carbonyl}piperidin-4-yl)cyclopropanecarboxamide]
> 10000	130	> 10000	O=C(NC1CCN(C(=O)c2cc(OCC3CC3)nc(-c3cnn4ccsc34)n2)CC1)C1CC1 [Example 43, N-(1-{[6-(Cyclopropylmethoxy)-2-(pyrazolo[5,1-b][1,3]thiazol-7-yl)pyrimidin-4-yl]carbonyl}piperidin-4-yl)cyclopropanecarboxamide]
2100	68	1800	C[C@H](Nc1cc(C(=O)N2CCC(NC(=O)c3ccncc3)CC2)nc(-c2cnn3ccsc23)n1)C1CC1 [Example 187, N-1-[6-[(1S)-1-cyclopropylethyl]amino-2-(pyrazolo[5,1-b][1,3]thiazol-7-yl)pyrimidine-4-carbonyl]piperidin-4-ylpyridine-4-carboxamide]
> 10000	120	> 10000	COC(=O)NC1CCN(C(=O)c2cc(N[C@@H]3CCN(C(=O)CC#N)C3)nc(-c3cnn4ccsc34)n2)CC1 [Example 201, Methyl 1-[6-[(3R)-1-(cyanoacetyl)pyrrolidin-3-yl]amino-2-(pyrazolo[5,1-b][1,3]thiazol-7-yl)pyrimidine-4-carbonyl]piperidin-4-ylcarbamate]
> 10000	1600	> 10000	COC(=O)NC1CCN(C(=O)c2cc(N[C@@H]3CCN(C(=O)OC(C)(C)C)C3)nc(-c3cnn4ccsc34)n2)CC1 [Example 148, tert-Butyl (3R)-3-{[6-({4-[(methoxycarbonyl)amino]piperidin-1-yl}carbonyl)-2-(pyrazolo[5,1-b][1,3]thiazol-7-yl)pyrimidin-4-yl]amino}pyrrolidine-1-carboxylate]
1400	260	1600	CC(C)[C@H](C)Nc1cc(C(=O)N2CCC(NC(=O)C3CC3)CC2)nc(-c2cnn3ccsc23)n1 [Example 123, N-(1-{[6-{[(2S)-3-Methylbutan-2-yl]amino}-2-(pyrazolo[5,1-b][1,3]thiazol-7-yl)pyrimidin-4-yl]carbonyl}piperidin-4-yl)cyclopropanecarboxamide]
